Experimental data published in patent US5214055A, “Aminopiperidine 4-oxo-4H-chromen-2-yl compounds” (Adir et Compagnie, priority 1990, dated 1993).
Where a name gives a salt, the structure may show the parent alone. Read-outs that look alike come from different tables or passages of the source.

Columns and labels:
5HT1A receptor = molecular target: T1, 5HT1A receptor (Rattus norvegicus, UniProt P19327); test: "Tail-Flicks" test on rats (reduction of 8-OH-DPAT induced tail movements); type: in vivo; settings: sc, tail movements induced by subcutaneous 8-OH-DPAT, read-out: ED50 (amount that reduces 8-OH-DPAT action by 50%)
T1 construct: Subcutaneous injection of rats with 8-OH-DPAT spontaneously induces tail movements; from tissue; host or cells: whole living rat (in vivo)
T1 sequence (P19327 1-422): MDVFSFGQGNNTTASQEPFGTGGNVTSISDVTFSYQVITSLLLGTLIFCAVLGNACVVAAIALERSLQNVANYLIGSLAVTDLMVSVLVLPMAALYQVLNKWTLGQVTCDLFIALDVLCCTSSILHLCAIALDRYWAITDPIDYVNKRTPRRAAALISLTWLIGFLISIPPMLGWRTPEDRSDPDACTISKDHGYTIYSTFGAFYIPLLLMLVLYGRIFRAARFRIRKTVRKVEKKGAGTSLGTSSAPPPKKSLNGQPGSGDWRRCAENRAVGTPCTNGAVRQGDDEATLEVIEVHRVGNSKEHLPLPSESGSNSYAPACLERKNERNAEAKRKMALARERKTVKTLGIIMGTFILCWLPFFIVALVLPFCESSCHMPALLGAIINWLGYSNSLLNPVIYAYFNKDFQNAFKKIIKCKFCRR
Description: a) "Tail-Flicks" test on rats
Subcutaneous injection of rats with 8-OH-DPAT spontaneously induces tail movements ("Tail-Flicks"). These movements are reduced in a specific manner by 5HT1A receptor antagonists. The ED50 values, that is to say those amounts of the compounds of the invention that reduce 8-OH-DPAT action by 50%, are listed in Table II.

sigma receptor = test: Sigma binding test (in vitro), inhibition of [3H] ditolylguanidine binding; design: species or system guinea pig
Procedure: b) Sigma binding test (in vitro)
The affinity of the compounds of the invention to the sigma receptor in brain tissue is evaluated by the degree of inhibition of the binding of a sigma site radioligand in in vitro competition experiments.
The experiment protocol used is that described by WEBER et at. Proc. Nat. Acad. Sci. USA, (1986), 83, 8784-8788.
The ligand is 1,2-di-(2-[5-^3 H]tolyl)guanidine (Dupont de Nemours--55 Ci/mmol) at a final concentration of 2 nM.
The membrane preparation is a suspension of central nervous system microsomes of a guinea pig used at a final concentration of 0.5 mg of prot/ml.
The non-specific fixation is determined in the presence of 10 μM of haloperidol.
The results, given in Table III, to illustrate the invention are expressed at IC50 =K.0.5 (M)

[1] = guinea pig central nervous system microsomes, 0.5 mg of prot/ml, ligand 2 nM, non-specific: 10 μM haloperidol

SMILES | ED50 (5HT1A receptor) [mg/kg] | IC50 (sigma receptor; [1]) [µM] | IC50 (sigma receptor) [µM]
CN(C(=O)OC(C)(C)C)C1CCN(CC2Cc3ccccc32)CC1 (stereo not drawn) [Example 11, Tert-butyl N-[1-(benzocyclobuten-1-ylmethyl)-piperid-4-yl]-N-methylcarbamate hydrochl oride] | 2.5 |  | 
CCOC(=O)N(C)C1CCN(CC2Cc3ccccc32)CC1 (stereo not drawn) [Example 23, Ethyl N-[1-(benzocyclobuten-1-ylmethyl)-piperid-4-yl]-N-methylcarbamate hydrochloride] | 2.5 |  | 
COC(=O)N(C)C1CCN(CC2Cc3ccccc32)CC1 (stereo not drawn) [Example 8, Methyl [1-benzocyclobuten-1-ylmethyl)-piperid-4-yl]-N-methylcarbamate hydrochloride] | 1.25 |  | 
CCN(C(C)=O)C1CCN(CC2Cc3ccccc32)CC1 (stereo not drawn) [Example 21, N-[1-(benzocyclobuten-1-ylmethyl)-piperid-4-yl]-N-ethylacetamide hydrochloride] | 0.63 |  | 
CN(C(=O)OCc1ccccc1)C1CCN(CC2Cc3ccccc32)CC1 (stereo not drawn) [Example 19, Benzyl N-[1-(benzocyclobuten-1-ylmethyl)-piperid-4-yl]-N-methylcarbamate hydrochloride] |  | 0.03 | 
C=COC(=O)N(C)C1CCN(CC2Cc3ccccc32)CC1 (racemic) [Example 42, (R,S)-vinyl N-[1-(benzocyclobuten-1ylmethyl)-piperid-4-yl]-N-methylcarbamate hydrochlo ride] | 1.25 | 0.05 | 
CCCOC(=O)N(C)C1CCN(CC2Cc3ccccc32)CC1 (stereo not drawn) [Example 9, Propyl N-[1-(benzocyclobuten-1-ylmethyl)-piperid-4-yl]-N-methylcarbamate hydrochloride] | 0.31 | 0.03 | 
CCOC(=O)N(C)C1CCN(CC2Cc3c2ccc2c3OCO2)CC1 (stereo not drawn) [Example 28, Ethyl N-{1-[(3,4-methylenedioxybenzocyclobuten-1-yl)methyl[-piperid-4-yl}-N-methylcarbamate fumarate] | 2.5 |  | 
CCOC(=O)N(CC)C1CCN(CC2Cc3ccccc32)CC1 (stereo not drawn) [Example 13, Ethyl N-[1-(benzocyclobuten-1-ylmethyl)-piperid-4-yl]-N-ethylcarbamate hydrochloride] | 1.25 |  | 
CN(C(=O)Oc1ccccc1)C1CCN(CC2Cc3ccccc32)CC1 (stereo not drawn) [Example 12, Phenyl N-[1-(benzocyclobuten-1-ylmethyl)-piperid-4-yl]-N-methylcarbamate hydrochloride] |  |  | 0.03
CCCOC(=O)N(C)C1CCN(C2Cc3ccccc3C2)CC1 [Example 44, Propyl N-[1-(indan-2-yl)-piperid-4-yl]-N-methylcarbamate] | 2.5 | 0.04 | 
CCN(C(=O)OC)C1CCN(CC2Cc3ccccc32)CC1 (stereo not drawn) [Example 14, Methyl N-[1-(benzocyclobuten-1-ylmethyl)-piperid-4-yl]-N-ethylcarbamate hydrochloride] | 0.02 |  | 
CC(C)COC(=O)N(C)C1CCN(CC2Cc3ccccc32)CC1 (stereo not drawn) [Example 15, Isobutyl N-[1-(benzocyclobuten-1-ylmethyl)-piperid-4-yl]-N-methylcarbamate fumarate] | 1.25 | 0.1 | 
CC(C)COC(=O)N(C)C1CCN(C2Cc3ccccc3C2)CC1 [Example 43, Isobutyl N-[1-(indan-2-yl)-piperid-4-yl]-N-methylcarbamate fumarate] |  | 0.004 | 
